{"source": "patent US9321718B2", "about": "(CHROMA THERAPEUTICS LTD., priority 2010, dated 2016)", "key": {"[1]": {"molecular_target": "T1, human recombinant his-tagged HSP90α (Homo sapiens, UniProt P07900)", "T1 construct": "purchased Prospec Technogene #HSP90", "experiment": "HSP90 enzyme assay (HTRF, competition with biotinylated Geldanamycin)", "assay_type": "binding", "conditions": "IC50 range; read-out: Enzyme Assay", "procedure,_shortened": "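HTRF competition: compounds (5000 to 0.3 nM, 0.5% DMSO) displace 40 nM biotinylated geldanamycin from 40 nM his-tagged HSP90α. Binding was read via Eu-cryptate anti-his/streptavidin-XL FRET after 20 h at room temperature in Hepes pH 7.3 buffer. IC50 was fitted against controls.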"}, "[2]": {"system": "TNFα release from LPS stimulated THP-1 (hCE-1 +ve) cells", "experiment": "LPS-stimulation of THP-1 cells (TNF-α release)", "assay_type": "cell-based, human", "conditions": "Homo sapiens, THP-1; IC50 range; TNF-α after LPS 1 μg/ml, 6 hours; read-out: THP-1 Assay", "procedure,_shortened": "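THP-1 cells at 4×10^4 per well were pre-incubated for 16 h, then exposed to inhibitor for 2 h before stimulation with 1 μg/ml LPS for 6 h at 37 °C. TNF-α in cell-free supernatants was measured by sandwich ELISA.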"}, "[3]": {"system": "TNF-α levels in LPS-stimulated human whole blood", "experiment": "LPS-stimulation of human whole blood (TNF-α levels)", "assay_type": "cell-based", "conditions": "Homo sapiens; IC50 range; TNF-α after LPS 100 ng/ml, 6 hours"}, "[4]": {"system": "intact U937 cells", "experiment": "Carboxylic acid accumulation in intact U937 cells", "assay_type": "in vitro ADME, human", "conditions": "in words", "protocol": "(§1) The assessment of the accumulation of ester-derived acid in intact human tumour cells can be measured using the following method:\n(§2) U937, THP-1 or Hut 78 cells (4×10^4/ml) were incubated at 37° C. in culture medium containing 6 μM compound. Incubations were terminated by centrifugation (300 g; 5 min; 4° C.). Supernatants were added to 4 volumes of HPLC-grade acetonitrile. After decanting the supernatant, the residual cell pellet (1×10^6 cells) was extracted into 1 ml of acetonitrile. Samples were analyzed for the ester and acid metabolite at room temperature by LC/MS/MS (Sciex API3000). Chromatography was based on an AceCN (75*21 mm) column with a 5-95% (v/v) acetonitrile, 0.1% (v/v) formic acid mobile phase."}, "[5]": {"system": "intact THP-1 cells", "experiment": "Carboxylic acid accumulation in intact THP-1 cells", "assay_type": "in vitro ADME, human", "conditions": "in words", "protocol": "as §1, §2"}, "[6]": {"system": "intact Hut78 cells", "experiment": "Carboxylic acid accumulation in intact Hut78 cells", "assay_type": "in vitro ADME, human", "conditions": "in words", "protocol": "as §1, §2"}}, "data": [{"compound": "CC(C)C[C@H](NC1CCN(C(=O)c2cc(C(C)C)c(O)cc2O)CC1)C(=O)OC1CCCC1", "note": "[Example 1, cyclopentyl N-(1-{[2,4-dihydroxy-5-(propan-2-yl)phenyl]carbonyl}piperidin-4-yl)-L-leucinate]", "values": [{"measurement": "IC50", "setting": "[1]", "value": "< 100", "unit": "nM"}, {"measurement": "IC50", "setting": "[2]", "value": "< 100", "unit": "nM"}, {"measurement": "IC50", "setting": "[3]", "value": "100 to 1000", "unit": "nM"}, {"measurement": "Carboxylic acid accumulated by U937 cells", "setting": "[4]", "value": "significant amounts"}, {"measurement": "Carboxylic acid accumulated by THP-1 cells", "setting": "[5]", "value": "significant amounts"}, {"measurement": "Acid detected in Hut78 cells", "setting": "[6]", "value": "negligible"}]}]}
